This is an account of results in paper PMC6175931, “Structural insights into the electron/proton transfer pathways in the quinol:fumarate reductase from Desulfovibrio gigas” (Scientific Reports, 2018).

This assay has as its target T1, quinol:fumarate reductase (QFR), site in subunit A (FAD-binding protein) (Megalodesulfovibrio gigas, UniProt T2GB49).
T1 construct: gene fdrA; native, purified from D. gigas membranes in DDM; A2B2C2 homo-dimer; subunit A 627 residues (1-622 built), B 264, C 218; with Fumarate reductase iron-sulfur subunit; Fumarate reductase cytochrome b subunit
T1 sequence (T2GB49 1-627): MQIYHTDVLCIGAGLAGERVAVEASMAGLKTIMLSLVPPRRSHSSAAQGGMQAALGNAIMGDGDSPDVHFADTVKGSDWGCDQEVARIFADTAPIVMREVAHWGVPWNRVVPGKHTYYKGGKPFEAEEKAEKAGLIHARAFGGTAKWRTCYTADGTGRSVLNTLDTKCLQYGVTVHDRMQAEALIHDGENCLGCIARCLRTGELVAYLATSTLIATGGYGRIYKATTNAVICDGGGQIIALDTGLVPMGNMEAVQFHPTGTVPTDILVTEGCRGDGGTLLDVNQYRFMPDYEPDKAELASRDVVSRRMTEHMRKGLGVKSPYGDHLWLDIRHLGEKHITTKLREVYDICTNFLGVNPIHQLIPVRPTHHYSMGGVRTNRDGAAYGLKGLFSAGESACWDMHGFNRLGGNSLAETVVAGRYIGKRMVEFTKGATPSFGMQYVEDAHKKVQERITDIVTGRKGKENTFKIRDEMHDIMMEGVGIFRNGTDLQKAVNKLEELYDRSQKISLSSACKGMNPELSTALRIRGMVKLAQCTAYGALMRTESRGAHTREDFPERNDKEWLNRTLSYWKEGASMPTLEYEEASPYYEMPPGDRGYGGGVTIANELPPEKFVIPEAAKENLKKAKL
T1 sequence (T2G9X8 1-264 partner): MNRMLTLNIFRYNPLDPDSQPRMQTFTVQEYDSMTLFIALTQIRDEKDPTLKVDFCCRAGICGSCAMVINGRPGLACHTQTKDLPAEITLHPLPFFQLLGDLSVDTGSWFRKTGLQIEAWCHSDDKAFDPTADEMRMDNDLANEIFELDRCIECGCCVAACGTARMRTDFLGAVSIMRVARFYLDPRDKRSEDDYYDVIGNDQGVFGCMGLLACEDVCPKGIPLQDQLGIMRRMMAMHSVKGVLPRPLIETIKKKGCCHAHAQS
T1 sequence (T2GAT5 1-218 partner): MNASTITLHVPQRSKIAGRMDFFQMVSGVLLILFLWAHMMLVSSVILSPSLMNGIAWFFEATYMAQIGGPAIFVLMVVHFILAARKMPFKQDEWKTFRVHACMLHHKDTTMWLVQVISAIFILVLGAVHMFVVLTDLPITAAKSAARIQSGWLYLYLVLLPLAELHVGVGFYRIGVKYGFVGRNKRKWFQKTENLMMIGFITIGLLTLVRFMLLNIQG
Description: X-ray crystal structure, […] Å. The conditions noted are these: crystals at pH 8.5.

In the case of `O=C(O)/C=C/C(=O)O` [fumarate], the “X-ray crystal structure, 3.6 Å” value (fumarate site near the FAD in subunit A) is on record as “A fumarate molecule is also observed near the FAD in the A subunit”.

For the molecule `Cc1cc2nc3c(=O)[nH]c(=O)nc-3n(C[C@H](O)[C@H](O)[C@H](O)COP(=O)(O)OP(=O)(O)OC[C@H]3O[C@@H](n4cnc5c(N)ncnc54)[C@H](O)[C@@H]3O)c2cc1C` [FAD, flavin adenine dinucleotide], under “covalent, C8M methyl of flavin to His-A43”, the “X-ray crystal structure, 3.6 Å” value is given as “FAD binds to the FAD-binding domain through a covalent bond with residue His-A43”.
